Measured values taken from publication PMC7591920, “A protein tertiary structure mimetic modulator of the Hippo signalling pathway” (Nature Communications, 2020).
Blank lines part the entries; values can stand above or below the compound they belong to. Bridge positions count the residues as written; N and C are the ends. Square brackets hold non-standard residues; d marks the D form. Peptide text beside a SMILES is read from it. Orn = NCCC[C@H](N)C(=O)O; Dab = NCC[C@H](N)C(=O)O

Columns and labels:
RKO cells [1] = assay: Sub-cellular (cytoplasmic, nuclear) peptide concentration in RKO cells by UPLC-MS; settings: for Sub-cellular drug content, Cytoplasm, Measured concentration / Sub-cellular drug content, Cytoplasm, nMol / Sub-cellular drug content, Nuclear, Measured concentration / Sub-cellular drug content, Nuclear, nMol / Sub-cellular drug content, Cytoplasm, pMol.mg-1 / Sub-cellular drug content, Nuclear, pMol.mg-1 / Sub-cellular drug content, Cytoplasm / Sub-cellular drug content, Nuclear: n = 2; for Sub-cellular drug content, Cytoplasm, pMol.mg-1 / Sub-cellular drug content, Nuclear, pMol.mg-1: per mg protein; for Cytoplasmic concentration of peptide: cytoplasmic fraction; for Nuclear concentration of peptide: nuclear fraction; for Cytoplasmic concentration, raw data / Nuclear concentration, raw data: sheet Figure 3c, 25 µM unlabelled peptide; for Intracellular concentration: mass spectrometry; for pMol/mg: Nuclear
Protocol: (§1) Peptides were incubated in RKO cells (ATCC, #CRL-2577) as follows: Experiment 1: RKO cells were incubated in 25 µM compound for 90 min and 24 h. Experiment 2: RKO cells were incubated in 25 µM for 30 min or 72 h. Following peptide incubation, the cells were washed twice with PBS, trypsinized and pelleted. The pellets were lysed in RIPA buffer (Perkin Elmer) for total lysis, or CelLytic NuCLEAR Extraction Kit (SIGMA) for subcellular fractionation. Total protein quantification BCA (Pierce) was performed prior to MS analysis to normalize sample data. Total and fractionated cell lysates were analysed by quantitative UPLC-MS utilizing a Waters Xevo TQ-XS (WBA0259) and an Acquity UPLC system from Waters consisting of Sample Manager (M16UFL953M), Acquity PDA (F17UPD457A), Column Oven (E17CMP703G) and Binary Solvent Manager (E17BUR621G). […] Chromatograms of the samples were treated similarly, and by linear regression (1/x) an in-cell concentration was established in the re-suspended cell lysate using the Waters MassLynx TargetLynx^TM product.

RKO cells [2] = assay: Total drug content in RKO cells by UPLC-MS; settings: 25 µM compound; for Total drug content, Measured Concentration: RIPA total lysis, diluted lysate; for Total drug content, Measured Concentration / Total drug content / Measured Conc: UPLC-MS; for Total drug content, Measured Concentration / Total drug content: n = 2; for Total drug content: total lysis; for Measured Conc / pMol/mg of protein, Mean / pMol/mg, Mean: total drug content; for pMol/mg of protein, Mean / pMol/mg, Mean: mean of 2 replicates
Protocol: as §1

mTEAD4 = molecular target: T1, mTEAD4 (Mus musculus, UniProt Q62296); assay: SPR binding to immobilised mTEAD4; settings: mTEAD4 amine-coupled on CM5, multi-cycle, steady-state fit 1:1 model, 10 mM HEPES 150 mM NaCl 0.05% Tween-20 pH 7.4, 0.3% DMSO, 20 °C, Fig. 1 values n = 1 replicate
T1 construct: Mouse TEAD4(210–427) cDNA fused with a 6x His-tag and a 3C protease cleavage site; 6x His-tag; 3C protease cleavage site; made in house; host or cells: E. coli BL21 DE3 RIL(K+)
T1 sequence (Q62296 210-427): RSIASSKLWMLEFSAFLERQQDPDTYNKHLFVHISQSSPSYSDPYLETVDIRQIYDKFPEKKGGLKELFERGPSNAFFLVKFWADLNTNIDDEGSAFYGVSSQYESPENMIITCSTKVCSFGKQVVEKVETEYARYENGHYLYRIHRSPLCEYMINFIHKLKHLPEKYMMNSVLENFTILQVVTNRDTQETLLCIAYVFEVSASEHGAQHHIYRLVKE
Protocol: Sensor chips Series S CM5 (Research grade) were obtained from GE Healthcare. Prior to use, the sensor chips were equilibrated at room temperature for 15 min to prevent water condensation on the detector side of the sensor chip surface. A running buffer was prepared composed of 10 mM HEPES, 150 mM NaCl, and 0.05% (w/v) Tween-20, pH 7.4, and the system was equilibrated at 20 °C using a flow rate of 30 µL min^−1 after docking of the sensor chip. Ligand binding experiments have been performed applying the concept of multi-cycle kinetics. A contact time of 45 s was selected, followed by a 6-min dissociation phase to allow for complete dissociation of the analyte prior to the next cycle. […] Typically, seven concentrations of the analytes have been examined applying a threefold dilution pattern with 30 µM as top concentration. For the analysis, five running buffer blanks were injected to equilibrate the instrument. […] The carboxyl-dextran surface was activated for 7 min with 0.05 M NHS and 0.2 M EDC, followed by an injection of the proteins in 10 mM MES pH 6.4 at a concentration of 30–50 µg mL^−1. […] This was followed by a deactivation of the residual esters by injecting a solution of 0.5 M ethanolamine pH 8.0 for 7 min before engaging in ligand binding experiments. Reference surfaces were prepared accordingly, omitting the injection of protein over the activated reference surface.

[3] = 25 µM compound, 90 minutes, fractionation, UPLC-MS
[4] = 25 µM compound, 24 hours, fractionation, UPLC-MS
[5] = 90 minutes, dilution factor 10, replicate 1
[6] = 90 minutes, dilution factor 10, replicate 2
[7] = 24 hours, dilution factor 10, replicate 1
[8] = 24 hours, dilution factor 10, replicate 2

- Sub-cellular drug content, Cytoplasm, Measured concentration (RKO cells [1]; [3]): < LLOQ
- Sub-cellular drug content, Cytoplasm, nMol (RKO cells [1]; [3]): < LLOQ
- Sub-cellular drug content, Nuclear, Measured concentration (RKO cells [1]; [3]): < LLOQ
- Sub-cellular drug content, Nuclear, nMol (RKO cells [1]; [3]): < LLOQ
- Sub-cellular drug content, Cytoplasm, pMol.mg-1 (RKO cells [1]; [3]): < LLOQ
- Sub-cellular drug content, Nuclear, pMol.mg-1 (RKO cells [1]; [3]): < LLOQ
- Sub-cellular drug content, Cytoplasm, Measured concentration (RKO cells [1]; [4]): < LLOQ
- Sub-cellular drug content, Cytoplasm, nMol (RKO cells [1]; [4]): < LLOQ
- Sub-cellular drug content, Nuclear, Measured concentration (RKO cells [1]; [4]): < LLOQ
- Sub-cellular drug content, Nuclear, nMol (RKO cells [1]; [4]): < LLOQ
- Sub-cellular drug content, Cytoplasm, pMol.mg-1 (RKO cells [1]; [4]): < LLOQ
- Sub-cellular drug content, Nuclear, pMol.mg-1 (RKO cells [1]; [4]): < LLOQ
- Cytoplasmic concentration of peptide (RKO cells [1]; UPLC-MS, raw data replicate 1): <LLOQ
- Cytoplasmic concentration of peptide (RKO cells [1]; UPLC-MS, raw data replicate 2): <LLOQ
- Nuclear concentration of peptide (RKO cells [1]; UPLC-MS, raw data replicate 1): <LLOQ
- Nuclear concentration of peptide (RKO cells [1]; UPLC-MS, raw data replicate 2): <LLOQ
- Cytoplasmic concentration, raw data (RKO cells [1]; UPLC-MS, replicate 1): <LLOQ
- Nuclear concentration, raw data (RKO cells [1]; UPLC-MS, replicate 1): <LLOQ
- Cytoplasmic concentration, raw data (RKO cells [1]; UPLC-MS, replicate 2): <LLOQ
- Nuclear concentration, raw data (RKO cells [1]; UPLC-MS, replicate 2): <LLOQ
- Detection in cytoplasmic and nuclear fractions (RKO cells [1]; unlabelled peptide 25 µM, 90 min and 24 h, fractionation, UPLC-MS): not detected in subcellular fractions
- Intracellular concentration (RKO cells [1]; unlabelled peptide 25 µM, 90 min incubation, n = 2 biological replicates): < LLOQ
- Intracellular concentration (RKO cells [1]; unlabelled peptide 25 µM, 24 hours incubation, N = 2 biological replicates): < LLOQ
- Total drug content, Measured Concentration (RKO cells [2]; 90 minutes): 1133.521 ± 133.393 nM
- Total drug content (RKO cells [2]; 90 minutes): 1.7 ± 0.2001 nmol
- Total drug content, Measured Concentration (RKO cells [2]; 24 hours): 322.145 ± 33.657 nM
- Total drug content (RKO cells [2]; 24 hours): 0.4832 ± 0.05049 nmol
- Measured Conc (RKO cells [2]; [5]): 1266.91 nM
- Measured Conc (RKO cells [2]; [6]): 1000.13 nM
- pMol/mg of protein, Mean (RKO cells [2]; 90 minutes): 1685.1 pMol/mg of protein
- Measured Conc (RKO cells [2]; [7]): 355.802 nM
- Measured Conc (RKO cells [2]; [8]): 288.488 nM
- pMol/mg, Mean (RKO cells [2]; 24 hours): 331.25 pMol/mg
Structure (SMILES): CC[C@H](C)[C@H](NC(=O)[C@H](CCC(N)=O)NC(=O)[C@H](CC(C)C)NC(=O)[C@H](Cc1c[nH]c2ccccc12)NC(=O)[C@@H](NC(=O)[C@H](CC(=O)O)NC(=O)CNC(=O)[C@H](CC(C)C)NC(=O)[C@H](C)NC(=O)[C@H](CCCCN)NC(=O)[C@H](C)NC(=O)[C@H](Cc1ccccc1)NC(=O)[C@H](Cc1c[nH]cn1)NC(=O)[C@H](CC(=O)O)NC(=O)[C@H](CC(=O)O)NC(=O)[C@@H](NC(=O)[C@H](CO)NC(C)=O)C(C)C)[C@@H](C)O)C(=O)N[C@@H](CCCCN)C(=O)N[C@@H](C)C(=O)N[C@@H](C)C(N)=O [compound 4] (Ac-SVDDHFAKALGDTWLQIKAA-NH2)

- Kd (mTEAD4): 11 µM
Structure (SMILES): CC[C@H](C)[C@@H]1NC(=O)[C@H](CCC(N)=O)NC(=O)[C@H](CC(C)C)NC(=O)[C@H](Cc2c[nH]c3ccccc23)NC(=O)[C@H]([C@@H](C)O)NC(=O)[C@H](CC(=O)O)NC(=O)CNC(=O)[C@H](CC(C)C)NC(=O)[C@H](C)NC(=O)[C@H](CCCCN)NC(=O)[C@H](C)NC(=O)[C@H](Cc2ccccc2)NC(=O)[C@H](Cc2c[nH]cn2)NC(=O)[C@H](CC(=O)O)NC(=O)[C@@H](NC(=O)[C@@H](NC(=O)[C@H](CO)NC(C)=O)C(C)C)CC(=O)NCC[C@@H](C(=O)N[C@@H](C)C(=O)N[C@@H](C)C(N)=O)NC1=O [4A] (Ac-SVDDHFAKALGDTWLQI[Dab]AA-NH2; lactam 3-18)

Structure (SMILES): CC(=O)NCC(=O)N[C@@H](CCCNC(=N)N)C(=O)N[C@@H](CCCCN)C(=O)N[C@@H](CCCCN)C(=O)N[C@@H](CCCNC(=N)N)C(=O)N[C@@H](CCCNC(=N)N)C(=O)N[C@@H](CCC(N)=O)C(=O)N[C@@H](CCCNC(=N)N)C(=O)N[C@@H](CCCNC(=N)N)C(=O)N[C@@H](CCCNC(=N)N)C(=O)N1CCC[C@H]1C(=O)N[C@@H](CCC(N)=O)C(N)=O [Tat, reference compound]
- Sub-cellular drug content, Cytoplasm (RKO cells [1]; [3]): 0.137 nmol
- Sub-cellular drug content, Cytoplasm, Measured concentration (RKO cells [1]; [3]): 91.363 ± 8.748 nM
- Sub-cellular drug content, Nuclear (RKO cells [1]; [3]): 0.6254 nmol
- Sub-cellular drug content, Nuclear, Measured concentration (RKO cells [1]; [3]): 416.901 ± 142.802 nM
- Sub-cellular drug content, Cytoplasm (RKO cells [1]; [4]): 0.1476 nmol
- Sub-cellular drug content, Cytoplasm, Measured concentration (RKO cells [1]; [4]): 98.42 ± 12.91 nM
- Sub-cellular drug content, Nuclear (RKO cells [1]; [4]): 0.9853 nmol
- Sub-cellular drug content, Nuclear, Measured concentration (RKO cells [1]; [4]): 656.841 ± 162.534 nM
- pMol/mg, Mean (RKO cells [1]; Cytoplasm, 25 µM compound, 90 minutes (1.5 hrs), mean of 2 replicates): 209 pMol/mg
- pMol/mg (RKO cells [1]; 25 µM compound, 90 minutes (1.5 hrs), replicate 1): 2567 pMol/mg
- pMol/mg (RKO cells [1]; 25 µM compound, 90 minutes (1.5 hrs), replicate 2): 4988 pMol/mg
- Cytoplasmic concentration of peptide (RKO cells [1]; UPLC-MS, mean of n = 2): 231.15 pMols/mg of protein
- Nuclear concentration of peptide (RKO cells [1]; UPLC-MS, mean of n = 2): 3777.5 pMols/mg of protein
- Total drug content, Measured Concentration (RKO cells [2]; 90 minutes): 478.752 ± 163.021 nM
- Total drug content, Measured Concentration (RKO cells [2]; 24 hours): 1797.357 ± 596.21 nM
- Total drug content (RKO cells [2]; 24 hours): 2.696 ± 0.8943 nmol
- Measured Conc (RKO cells [2]; [5]): 641.773 nM
- Measured Conc (RKO cells [2]; [6]): 315.731 nM
- pMol/mg of protein, Mean (RKO cells [2]; 90 minutes): 882.5 pMol/mg of protein
- Measured Conc (RKO cells [2]; [7]): 2393.57 nM
- Measured Conc (RKO cells [2]; [8]): 1201.15 nM
- pMol/mg, Mean (RKO cells [2]; 24 hours): 1647 pMol/mg

- Kd (mTEAD4): 11 µM
Structure (SMILES): CC[C@H](C)[C@@H]1NC(=O)[C@H](CCC(N)=O)NC(=O)[C@H](CC(C)C)NC(=O)[C@H](Cc2c[nH]c3ccccc23)NC(=O)[C@H]([C@@H](C)O)NC(=O)[C@H](CC(=O)O)NC(=O)CNC(=O)[C@H](CC(C)C)NC(=O)[C@H](C)NC(=O)[C@H](CCCCN)NC(=O)[C@H](C)NC(=O)[C@H](Cc2ccccc2)NC(=O)[C@H](Cc2c[nH]cn2)NC(=O)[C@H](CC(=O)O)NC(=O)[C@@H](NC(=O)[C@@H](NC(=O)[C@H](CO)NC(C)=O)C(C)C)CC(=O)NCCC[C@@H](C(=O)N[C@@H](C)C(=O)N[C@@H](C)C(N)=O)NC1=O [4B] (Ac-SVDDHFAKALGDTWLQI[Orn]AA-NH2; lactam 3-18)
